# US5925333A, “Methods for modulation of lipid uptake” (Massachusetts Institute of Technology, priority 1995, dated 1999)
# Experiments:
# [1] = target: murine scavenger receptor protein type BI (mSR-BI) (murine)
# [2] = target: murine scavenger receptor protein type BI (mSR-BI) (murine); remark: listed apart in the source
# adrenal tissues = test: Uptake of lipid from fluorescently labeled HDL injected into estrogen-treated rats, adrenal; type: in vivo, rat; conditions: fluorescently labeled HDL injected into estrogen-treated vs sham-injected rats
# liver cells = test: Uptake of lipid from fluorescently labeled HDL injected into estrogen-treated rats, liver; type: in vivo, rat; conditions: fluorescently labeled HDL injected into estrogen-treated vs sham-injected rats
# SR-BI = test: Immunoblot of SR-BI expression in tissues of estrogen-treated rats; type: in vivo, rat; conditions: 5 mg/kg subcutaneous for five consecutive days
# Experimental: To determine the size of mSR-BI and its tissue distribution, a rabbit anti-mSR-BI polyclonal antibody was prepared by immunization of a 16 amino acid peptide (residues 495 to 509 from the predicted protein sequence of mSR-BI plus an additional N-terminal cysteine) coupled to keyhole limpet hemocyanin. This is referred to as anti-mSR-BI^495 antiserum. The antiserum was used for immunoblot analysis of cultured cells and murine tissues.
# Post-nuclear cell extracts from ldlA and ldlA[mSR-BI] cells and membranes (post-nuclear 100,000×g pellets) from murine tissues were isolated, reduced, and separated by 6.5% SDS-polyacrylamide gel electrophoresis (50 μg protein/lane), transferred to nitrocellulose and probed with a primary anti-mSR-BI^495 antipeptide antibody (rabbit IgG fraction, 1:5000 dilution) and developed using a horseradish peroxidase labeled second antibody and ECL kit (5 min exposure, Amersham). Ponceau S staining was used as a control for gel loading and transfer.
# Tissues of estrogen-treated rats were screened for expression of SR-BI as described above following treatment of rats with 17-α-ethylenyl estradiol (estrogen). The rats were treated for five consecutive days with subcutaneous injections of 5 mg/kg 17-α-ethylenyl estradiol in propylene glycol or with propylene glycol alone (sham-injected).
# LDL receptor = test: Immunoblot of LDL receptor expression in estrogen-treated rats; type: in vivo, rat; conditions: 5 mg/kg subcutaneous for five consecutive days, vs sham, liver
Substance,cell association of the lipid-labeled component of HDL (3H-cholesteryl oleate or DiI) [1] [%],"total cellular cholesterol (free and esterified) after incubation with unlabeled HDL (20 µg protein/ml, 5 hrs) [2] [% increase]",Uptake of lipid into adrenal tissues (adrenal tissues),Uptake of HDL-derived lipids into liver cells (liver cells),"SR-BI expression in liver (SR-BI; vs sham, liver)","SR-BI levels in tissues showing trace signal (SR-BI; vs sham, lung, testes and skin)","SR-BI expression in rat adrenal membranes (SR-BI; vs sham-injected controls, adrenal membranes)",LDL receptor expression (LDL receptor)
high density lipoprotein (HDL) prepared from human plasma (from UniProt P02647),18,20,–,–,–,–,–,–
17-α-ethylenyl estradiol [estrogen],–,–,dramatically increased,no similar uptake,dramatically downregulated,no change,upregulation,tremendous upregulation
